Reference: US20090117200A1, “Fungicide Composition Comprising a Phosphorous Acid Derivative, a Mandelamide Type Compound and a Further Fungicide Compound” (priority 2005, published 2009)

Key:
Plasmopara viticola [1] = experiment: Example 3: preventive 72 h application on vine downy mildew, phosphorous acid / mandipropamid / folpet, TAMMES analysis; type: in vivo
Experimental: (§1) Vine plants (variety Cabernet Sauvignon) were grown in a sandy soil in plastic pots with a single plant per pot.
The following ratio was tested: phosphorous acid (A)/mandipropamid (B)/folpet (C) respectively: 1,500 g a.i./ha+75 g a.i./ha+750 g a.i./ha (ratio 20/1/10).
The dose range tested for phosphorous acid equivalent (329 g/kg) was: 3,000 g a.i./ha, 1,500 g a.i./ha, 1,000 g a.i./ha, 750 g a.i./ha, 500 g a.i./ha, 250 g a.i./ha, 80 g a.i./ha, 40 g a.i./ha, 20 g a.i./ha, 10 g a.i./ha, 2 g a.i./ha and 0.2 g a.i./ha.
The dose range for mandipropamid+folpet was: 75+750 g a.i./ha, 4+40 g a.i./ha, 2+20 g a.i./ha, 1+10 g a.i./ha, 0.5+5 g a.i./ha, 0.1+1 g a.i./ha and 0.01+0.1 g a.i./ha.
For the ternary mixture phosphorous acid equivalent+mandipropamid+folpet, the dose range studied was: 1,500+75+750 g a.i./ha, 80+4+40 g a.i./ha, 40+2+20 g a.i./ha, 20+1+10 g a.i./ha, 10+0.5+5 g a.i./ha, 2+0.1+1 g a.i./ha and 0.2+0.01+0.1 g a.i./ha.
(§2) Four days before treatment, phosphorous acid was applied at 1,500 g a.i./ha on plants planned to be treated later with phosphorous acid based product alone or in mixture.
(§3) A three days interval separated treatment and inoculation. Three days after the treatment, each plant was inoculated by spraying an aqueous suspension of sporangia of Plasmopara viticola obtained from infected leaves and sensitive to all the tested compounds. The concentration of sporangia was about 100,000 units per ml.
(§4) After contamination the plants were incubated for 7 days at 22° C. in a saturated atmosphere. Seven days after contamination, symptoms were evaluated in terms of the extent of the lower surface of the leaves infected, in comparison with untreated (UTC) but contamined plants.
(§5) The efficacy of the treatment was calculated using the Abbott formula:
(§6) efficacy=(untreated−treated/untreated)×100
(§7) The concentrations of the fungicide active substances alone or in mixture giving % efficacy for each component were determined based on the sigmoid curve dose/response model with their confidence intervals. The analysis of the results was made according to the TAMMES model (Isoboles, a graphic representation of synergism in pesticides, Neth. J. Plant Path. 70 (1964): 73-80).

Plasmopara viticola [2] = experiment: Example 4: preventive 72 h application on vine downy mildew, phosphorous acid / mandipropamid / mefenoxam, TAMMES analysis; type: in vivo
Experimental: as §1, §2, §3, §4, §5, §6, §7

[3] = sum of the components, or dose of the single compound, vine, preventive 72 h

OP(O)O [phosphorous acid]
ED70 (Plasmopara viticola [1]; Table 2 of Example 3: calculated according to efficacy observed, 70% of disease control): 6.2 g a.i./ha
ED90 (Plasmopara viticola [1]; Table 2 of Example 3: calculated according to efficacy observed, 90% of disease control): 145 g a.i./ha
Practical dose for 70% efficacy, total (Plasmopara viticola [1]; [3]): 6.2 g a.i./ha
Practical dose for 90% efficacy, total (Plasmopara viticola [1]; [3]): 145 g a.i./ha
ED70 (Plasmopara viticola [2]; Table 2 of Example 4: practical 70% of disease control observed): 650 g a.i./ha
ED90 (Plasmopara viticola [2]; Table 2 of Example 4: practical 90% of disease control observed): 1,500 g a.i./ha
